Drawing on patent publication US20260028350A1, “TOXIN MOLECULE SUITABLE FOR ANTIBODY-DRUG CONJUGATE” (Minghui Pharmaceutical (Hangzhou) Limited, priority 2022, published 2026), this text covers GI50 for 30 compounds.

The subject of the first experiment is KPL-4 Cells. As to the kind of experiment: Cell proliferation inhibition test (CellTiter-Glo, 72h). The conditions noted are these: 72h incubation, Table 2 run. It counts as cell-based. The procedure: KPL-4 Cells in the logarithmic phase of growth were collected and re-suspended with fresh RPMI1640 complete cell culture medium, and adjusted to 2×10^4 cells/mL after cell counting. Cells were seeded into 96-well cell culture plates at 100 µL/well, and placed in a CO2 incubator (37° C., 5% CO2) overnight. In the next day, one of the cell culture plates were taken out, balanced to room temperature, and CellTiter-Glo reagent (Promega, USA), which was pre-balanced to room temperature and evenly mixed, was added into the plate at 100 μl. The plate was kept in dark for 30 min, and then luminescence value was read with a microplate reader (denoted as Go value). The other cell culture plates were taken out and added with different concentrations of test compounds or DMSO (final concentration 0.5%) in corresponding wells. After incubated for 72h in a CO2 incubator, the cell culture plates were balanced to room temperature and tested for cell viabilities using CellTiter-Glo reagent as described above (denoted as G3 value).
DXd was used as a positive reference compound with the following structure:
The cell proliferation rates were calculated using the following formula: Cell proliferation rate (%)=(mean of G3compound−mean of G0)/(mean of G3DMSO−mean of G0)×100.
The GI50 is the concentration at which growth is held to half of that of the control. Read a high GI50 as less potent growth inhibition. Take `CC[C@@]1(O)C(=O)OCc2c1cc1n(c2=S)Cc2c-1nc1cc(F)c(C)c3c1c2[C@@H](NC(=O)C1CC(O)C1)CC3` (stereo partly shown) [Example 29]: the GI50 was found to be 5.96 nM. As to `CC[C@@]1(O)C(=O)OCc2c1cc1n(c2=S)Cc2c-1nc1cc(F)c(C)c3c1c2[C@@H](NC(=O)C1CC(O)C1)CC3` (stereo partly shown) [Example 30], the GI50 is 11.3 nM. On to `CC[C@@]1(O)C(=O)OCc2c1cc1n(c2=S)Cc2c-1nc1cc(F)c(C)c3c1c2[C@@H](NC(=O)C1CCC(O)CC1)CC3` (stereo partly shown) [Example 32], for which the GI50 worked out at 8.47 nM. In turn, `CC[C@@]1(O)C(=O)OCc2c1cc1n(c2=S)Cc2c-1nc1cc(F)c(C)c3c1c2[C@@H](NC(=O)C1CCC(O)CC1)CC3` (stereo partly shown) [Example 33] displayed a GI50 of 6.34 nM.

Staying with this experiment, now noted: KPL4, 72 h, 72h incubation, Table 1 run (DXd: average of 2 measurements).
With `CC[C@@]1(O)C(=O)OCc2c1cc1n(c2=O)Cc2c-1nc1cc(F)c(C)c3c1c2[C@@H](NC(=O)CO)CS3` [DXd, reference compound], the GI50 stood at 45.4 nM. On the same count and under the same terms, the figure for `CC[C@@]1(O)C(=O)OCc2c1cc1n(c2=S)Cc2c-1nc1cc(F)c(C)cc1c2CN` [Example 2] is 2.82 nM; for `CC[C@@]1(O)C(=O)OCc2c1cc1n(c2=S)Cc2c-1nc1cc(F)c(C)cc1c2CNC(=O)CO` [Example 3] it is 6.27 nM. On the same count and under the same terms, for `CC[C@@]1(O)C(=O)OCc2c1cc1n(c2=S)Cc2c-1nc1cc(F)c(C)cc1c2CCCCO` [Example 4] the value was 2.23 nM; for `CC[C@@]1(O)C(=O)OCc2c1cc1n(c2=S)Cc2c-1nc1ccc(N)c3c1c2CCC3` [Example 5], 1.84 nM.

The same experiment, now with this note: KPL4, 72 h, 72h incubation, Table 2 run.
In turn, `CC[C@@]1(O)C(=O)OCc2c1cc1n(c2=O)Cc2c-1nc1cc(F)c(C)c3c1c2[C@@H](NC(=O)CO)CS3` [DXd, reference compound] registered a GI50 of 22.8 nM. On the same count and under the same terms, the figure for `CC[C@@]1(O)C(=O)OCc2c1cc1n(c2=S)Cc2cc3c(CCCCO)c(C)c(F)cc3nc2-1` [Example 6] is 3.45 nM; for `CC[C@@]1(O)C(=O)OCc2c1cc1n(c2=S)Cc2c-1nc1cc3c(cc1c2CNC(=O)CO)OCO3` [Example 8] it is 12 nM; for `CC[C@@]1(O)C(=O)OCc2c1cc1n(c2=S)Cc2c-1nc1cc3c(cc1c2CNC(=O)CN)OCO3` [Example 9] it is 12.2 nM. On the same count and under the same terms, for `CC[C@@]1(O)C(=O)OCc2c1cc1n(c2=S)Cc2c-1nc1cc3c(cc1c2CCNC(C)C)OCO3` [Example 10] the value was 2.24 nM. Compound `CC[C@@]1(O)C(=O)OCc2c1cc1n(c2=S)Cc2c-1nc1ccccc1c2CCNC(C)C` [Example 11] registered a GI50 of 6.48 nM. For the compound `CC[C@@]1(O)C(=O)OCc2c1cc1n(c2=S)Cc2c-1nc1cc3c(cc1c2C12CC(N)(C1)C2)OCO3` [Example 12], the GI50 was 2.98 nM.

Compound `CC[C@@]1(O)C(=O)OCc2c1cc1n(c2=S)Cc2cc3cc(N)c(F)cc3nc2-1` [Example 13] showed a GI50 of 0.63 nM. On to `CC[C@@]1(O)C(=O)OCc2c1cc1n(c2=S)Cc2c-1nc1cc3c(cc1c2CNC(=O)C(O)C1CC1)OCO3` (stereo partly shown) [Example 14], for which the GI50 came to 3.49 nM. `CC[C@@]1(O)C(=O)OCc2c1cc1n(c2=S)Cc2c-1nc1cc3c(cc1c2CNC(=O)C(C)O)OCO3` (stereo partly shown) [Example 15]: the GI50 was found to be 4.13 nM. In turn, `CC[C@@]1(O)C(=O)OCc2c1cc1n(c2=S)Cc2c-1nc1cc3c(cc1c2CNC(=O)C1CC(O)C1)OCO3` (stereo partly shown) [Example 16] had a GI50 of 14.5 nM. On to `CC[C@@]1(O)C(=O)OCc2c1cc1n(c2=S)Cc2c-1nc1cc3c(cc1c2CNC(=O)C[C@@H](C)O)OCO3` [Example 18], for which the GI50 was 4.35 nM.

For the compound `CC[C@@]1(O)C(=O)OCc2c1cc1n(c2=S)Cc2c-1nc1cc3c(cc1c2CNC(=O)C[C@H](C)O)OCO3` [Example 19], the GI50 was 4.27 nM.

As to `CC[C@@]1(O)C(=O)OCc2c1cc1n(c2=S)Cc2c-1nc1cc(F)c(C)cc1c2CNC(=O)C1CCC(O)CC1` (stereo partly shown) [Example 21], halving of growth (GI50) required 16.8 nM. For the compound `CC[C@@]1(O)C(=O)OCc2c1cc1n(c2=S)Cc2c-1nc1cc(F)c(C)cc1c2CNC(=O)C(C)O` (stereo partly shown) [Example 22], halving of growth (GI50) required 2.81 nM. As for `CC[C@@]1(O)C(=O)OCc2c1cc1n(c2=S)Cc2c-1nc1cc(F)c(C)cc1c2CNC(=O)C(O)C1CC1` (stereo partly shown) [Example 23], the GI50 is 1.73 nM. In turn, `CC[C@@]1(O)C(=O)OCc2c1cc1n(c2=S)Cc2c-1nc1cc(F)c(C)cc1c2CNC(=O)C[C@H](C)O` [Example 24] registered a GI50 of 2.81 nM.

In the case of `CC[C@@]1(O)C(=O)OCc2c1cc1n(c2=S)Cc2c-1nc1cc(F)c(C)cc1c2CNC(=O)C[C@@H](C)O` [Example 25], halving of growth (GI50) required 2.21 nM.

Consider `CC[C@@]1(O)C(=O)OCc2c1cc1n(c2=S)Cc2c-1nc1cc(F)c(C)c3c1c2[C@@H](NC(=O)C[C@@H](C)O)CC3` [Example 26], for which it took 3.24 nM to inhibit growth by half (GI50). Still for that read-out and setting: the figure for `CC[C@@]1(O)C(=O)OCc2c1cc1n(c2=S)Cc2c-1nc1cc(F)c(C)c3c1c2[C@@H](NC(=O)C[C@H](C)O)CC3` [Example 27] is 2.93 nM; for `CC[C@@]1(O)C(=O)OCc2c1cc1n(c2=S)Cc2c-1nc1cc(F)c(C)c3c1c2[C@@H](NC(=O)C1CC(O)C1)CC3` (stereo partly shown) [Example 28] it is 10.8 nM. Take `CC[C@@]1(O)C(=O)OCc2c1cc1n(c2=S)Cc2c-1nc1cc(F)c(C)c3c1c2[C@@H](NC(=O)C1CCC(O)CC1)CC3` (stereo partly shown) [Example 31]: growth was halved (GI50) at 8.62 nM.
